Results as given in PubChem BioAssay AID2060902 (Molecular Pharmacology Branch, DTP, NCI, 2025).

System: 485368-065-R3-J5-PDC spheroids with HUVEC/MSC, viability
Assay: Anticancer human tumor 485368-065-R3-J5-PDC patient-derived pancreatic carcinoma cell line growth inhibition [RAS]
Settings: for IC50: curve of first compound; for viability, T/C: stronger effect = lower value
Method in brief: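 Tumour cells grown as complex spheroids with HUVEC endothelial cells and mesenchymal stem cells, treated with RAS pathway inhibitor combinations. Each agent spans half-log steps from near clinical Cmax, or 10 microM where Cmax is unknown.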
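Also: spheroids exposed to agents for seven days before readout.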

Compound: CC1(C)CCC(Nc2ncc(C(F)(F)F)c(-c3c[nH]c4c(P(C)(C)=O)c(C#N)ccc34)n2)CN1 (centres undefined) + CCn1c(-c2cc(N3CCN(C)CC3)cnc2C(C)OC)c2c3cc(ccc31)-c1csc(n1)CC(NC(=O)C1CC1C)C(=O)N1CCCC(N1)C(=O)OCC(C)(C)C2
- IC50 (second compound 0.000949 µM): < 0.949 nM
- IC50 (second compound 0.003 µM): < 0.949 nM
- IC50 (second compound 0.00949 µM): < 0.949 nM
- IC50 (second compound 0.03 µM): < 0.949 nM
- IC50 (second compound 0.0949 µM): < 0.949 nM
- IC50 (second compound 0.3 µM): < 0.949 nM
- viability, T/C (second compound 0.000949 µM, first compound 0.000949 µM): 48.5%
- viability, T/C (second compound 0.000949 µM, first compound 0.003 µM): 36.9%
- viability, T/C (second compound 0.000949 µM, first compound 0.00949 µM): 26.8%
- viability, T/C (second compound 0.000949 µM, first compound 0.03 µM): 31%
- viability, T/C (second compound 0.000949 µM, first compound 0.0949 µM): 31.2%
- viability, T/C (second compound 0.000949 µM, first compound 0.3 µM): 30.4%
- viability, T/C (second compound 0.003 µM, first compound 0.000949 µM): 24.4%
- viability, T/C (second compound 0.003 µM, first compound 0.003 µM): 26.2%
- viability, T/C (second compound 0.003 µM, first compound 0.00949 µM): 24.3%
- viability, T/C (second compound 0.003 µM, first compound 0.03 µM): 23.6%
- viability, T/C (second compound 0.003 µM, first compound 0.0949 µM): 26.9%
- viability, T/C (second compound 0.003 µM, first compound 0.3 µM): 27.4%
- viability, T/C (second compound 0.00949 µM, first compound 0.000949 µM): 17.1%
- viability, T/C (second compound 0.00949 µM, first compound 0.003 µM): 19%
- viability, T/C (second compound 0.00949 µM, first compound 0.00949 µM): 19.6%
- viability, T/C (second compound 0.00949 µM, first compound 0.03 µM): 19.9%
- viability, T/C (second compound 0.00949 µM, first compound 0.0949 µM): 24.5%
- viability, T/C (second compound 0.00949 µM, first compound 0.3 µM): 21.1%
- viability, T/C (second compound 0.03 µM, first compound 0.000949 µM): 14%
- viability, T/C (second compound 0.03 µM, first compound 0.003 µM): 18.8%
- viability, T/C (second compound 0.03 µM, first compound 0.00949 µM): 17.4%
- viability, T/C (second compound 0.03 µM, first compound 0.03 µM): 18.6%
- viability, T/C (second compound 0.03 µM, first compound 0.0949 µM): 22.4%
- viability, T/C (second compound 0.03 µM, first compound 0.3 µM): 21.2%
- viability, T/C (second compound 0.0949 µM, first compound 0.000949 µM): 13.2%
- viability, T/C (second compound 0.0949 µM, first compound 0.003 µM): 15.9%
- viability, T/C (second compound 0.0949 µM, first compound 0.00949 µM): 15.7%
- viability, T/C (second compound 0.0949 µM, first compound 0.03 µM): 17%
- viability, T/C (second compound 0.0949 µM, first compound 0.0949 µM): 20.2%
- viability, T/C (second compound 0.0949 µM, first compound 0.3 µM): 23.2%
- viability, T/C (second compound 0.3 µM, first compound 0.000949 µM): 11.7%
- viability, T/C (second compound 0.3 µM, first compound 0.003 µM): 15.8%
- viability, T/C (second compound 0.3 µM, first compound 0.00949 µM): 15.4%
- viability, T/C (second compound 0.3 µM, first compound 0.03 µM): 21.9%
- viability, T/C (second compound 0.3 µM, first compound 0.0949 µM): 19.4%
- viability, T/C (second compound 0.3 µM, first compound 0.3 µM): 22.6%

Compound: C=CC(=O)Nc1cc(Nc2nccc(-c3cn(C)c4ccccc34)n2)c(OC)cc1N(C)CCN(C)C + C#Cc1c(F)ccc2cc(O)cc(-c3ncc4c(N5CC6CCC(C5)N6)nc(OCC56CCCN5CC(F)C6)nc4c3F)c12
- IC50 (second compound 0.0316 µM): > 1000 nM
- IC50 (second compound 0.1 µM): > 1000 nM
- IC50 (second compound 0.316 µM): > 1000 nM
- IC50 (second compound 1 µM): > 1000 nM
- IC50 (second compound 3.16 µM): > 1000 nM
- IC50 (second compound 10 µM): < 3.16 nM
- viability, T/C (second compound 0.0316 µM, first compound 0.00316 µM): 103%
- viability, T/C (second compound 0.0316 µM, first compound 0.01 µM): 101%
- viability, T/C (second compound 0.0316 µM, first compound 0.0316 µM): 106%
- viability, T/C (second compound 0.0316 µM, first compound 0.1 µM): 104%
- viability, T/C (second compound 0.0316 µM, first compound 0.316 µM): 101%
- viability, T/C (second compound 0.0316 µM, first compound 1 µM): 89.7%
- viability, T/C (second compound 0.1 µM, first compound 0.00316 µM): 97%
- viability, T/C (second compound 0.1 µM, first compound 0.01 µM): 95.8%
- viability, T/C (second compound 0.1 µM, first compound 0.0316 µM): 95.8%
- viability, T/C (second compound 0.1 µM, first compound 0.1 µM): 108%
- viability, T/C (second compound 0.1 µM, first compound 0.316 µM): 108%
- viability, T/C (second compound 0.1 µM, first compound 1 µM): 96.2%
- viability, T/C (second compound 0.316 µM, first compound 0.00316 µM): 107%
- viability, T/C (second compound 0.316 µM, first compound 0.01 µM): 97.3%
- viability, T/C (second compound 0.316 µM, first compound 0.0316 µM): 96.1%
- viability, T/C (second compound 0.316 µM, first compound 0.1 µM): 103%
- viability, T/C (second compound 0.316 µM, first compound 0.316 µM): 101%
- viability, T/C (second compound 0.316 µM, first compound 1 µM): 85.5%
- viability, T/C (second compound 1 µM, first compound 0.00316 µM): 106%
- viability, T/C (second compound 1 µM, first compound 0.01 µM): 98.9%
- viability, T/C (second compound 1 µM, first compound 0.0316 µM): 100%
- viability, T/C (second compound 1 µM, first compound 0.1 µM): 97.3%
- viability, T/C (second compound 1 µM, first compound 0.316 µM): 83.3%
- viability, T/C (second compound 1 µM, first compound 1 µM): 74.6%
- viability, T/C (second compound 3.16 µM, first compound 0.00316 µM): 78%
- viability, T/C (second compound 3.16 µM, first compound 0.01 µM): 83.6%
- viability, T/C (second compound 3.16 µM, first compound 0.0316 µM): 72.4%
- viability, T/C (second compound 3.16 µM, first compound 0.1 µM): 67.6%
- viability, T/C (second compound 3.16 µM, first compound 0.316 µM): 63.3%
- viability, T/C (second compound 3.16 µM, first compound 1 µM): 49.8%
- viability, T/C (second compound 10 µM, first compound 0.00316 µM): 48%
- viability, T/C (second compound 10 µM, first compound 0.01 µM): 43.7%
- viability, T/C (second compound 10 µM, first compound 0.0316 µM): 37%
- viability, T/C (second compound 10 µM, first compound 0.1 µM): 37.3%
- viability, T/C (second compound 10 µM, first compound 0.316 µM): 28.6%
- viability, T/C (second compound 10 µM, first compound 1 µM): 30.1%
